Measured values published in US10059713B2 (Takeda Pharmaceutical Company Limited, priority 2014, dated 2018).
pEC50: −log10 of the molar value.

biological target: human GPR43 (Homo sapiens (Human), UniProt O15552); assay: Ca-Flux functional assay: determination of agonist/positive allosteric modulator (PAM) activity; assay type: cell-based; details: CHO-K1 Gα16 cells stably expressing human GPR43; compound added with EC20 sodium acetate; intracellular Ca2+ by FLIPR; does not distinguish agonist from PAM
Sequence (O15552 whole entry): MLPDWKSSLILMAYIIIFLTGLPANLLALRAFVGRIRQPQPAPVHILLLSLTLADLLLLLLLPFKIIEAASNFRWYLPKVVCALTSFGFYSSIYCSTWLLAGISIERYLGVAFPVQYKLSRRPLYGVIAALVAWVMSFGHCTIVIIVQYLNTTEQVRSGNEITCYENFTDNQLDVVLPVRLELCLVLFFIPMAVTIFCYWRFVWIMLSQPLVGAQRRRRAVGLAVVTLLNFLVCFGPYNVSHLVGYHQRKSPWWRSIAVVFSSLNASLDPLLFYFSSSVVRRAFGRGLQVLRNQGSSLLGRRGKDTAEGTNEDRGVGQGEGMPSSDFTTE
Method in brief: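 CHO-K1 Gα16 cells stably expressing human GPR43, loaded with Calcium 5 dye 1 h; compounds (10-point half-log from 10 μM) added with sodium acetate at EC20. FLIPR calcium signal gave EC50, two wells per point; agonists and PAMs not distinguished.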

Compound	pEC50
CCC1(CC)CN(c2ncnc3c(S(=O)(=O)c4ccccc4)c(N)[nH]c23)CCO1 [Example 103, 7-(benzenesulfonyl)-4-(2,2-diethylmorpholin-4-yl)-5H-pyrrolo[3,2-d]pyrimidin-6-amine]	7.44
Cc1ccc(-c2ncnc3c(S(=O)(=O)c4ccccc4)c(N)[nH]c23)cc1 [Example 104, 7-(benzenesulfonyl)-4-(4-methylphenyl)-5H-pyrrolo[3,2-d]pyrimidin-6-amine]	7.23
COC1CCCN(c2ncnc3c(S(=O)(=O)c4ccccc4)c(N)[nH]c23)C1 (stereo not shown) [Example 105, 7-(benzenesulfonyl)-4-(3-methoxypiperidin-1-yl)-5H-pyrrolo[3,2-d]pyrimidin-6-amine]	6.68
COc1ccc(S(=O)(=O)c2c(N)[nH]c3c(N4CCCC(C)C4)ncnc23)cc1 (stereo not shown) [Example 106, 7-(4-methoxybenzenesulfonyl)-4-(3-methylpiperidin-1-yl)-5H-pyrrolo[3,2-d]pyrimidin-6-amine]	7.82
COc1ccc(S(=O)(=O)c2c(N)[nH]c3c(N4CCOC(C)C4)ncnc23)cc1 (stereo not shown) [Example 107, 7-(4-methoxybenzenesulfonyl)-4-(2-methylmorpholin-4-yl)-5H-pyrrolo[3,2-d]pyrimidin-6-amine]	7.39
Cc1ccccc1-c1ncnc2c(S(=O)(=O)c3ccccc3)c(N)[nH]c12 [Example 108, 7-(benzenesulfonyl)-4-(2-methylphenyl)-5H-pyrrolo[3,2-d]pyrimidin-6-amine]	7.04
Nc1[nH]c2c(C3=CCCCC3)ncnc2c1S(=O)(=O)CC1CCOCC1 [Example 109, 4-(cyclohex-1-en-1-yl)-7-(oxan-4-ylmethanesulfonyl)-5H-pyrrolo[3,2-d]pyrimidin-6-amine]	5.30
Cc1nc(N2CCCC(C)C2)c2[nH]c(N)c(S(=O)(=O)c3ccccc3)c2n1 (stereo not shown) [Example 110, 7-(benzenesulfonyl)-2-methyl-4-(3-methylpiperidin-1-yl)-5H-pyrrolo[3,2-d]pyrimidin-6-amine]	7.49
Cc1nc(N2CCOC(C)C2)c2[nH]c(N)c(S(=O)(=O)c3ccccc3)c2n1 (stereo not shown) [Example 111, 7-(benzenesulfonyl)-2-methyl-4-(2-methylmorpholin-4-yl)-5H-pyrrolo[3,2-d]pyrimidin-6-amine]	7.72
COCC1CCN(c2ncnc3c(S(=O)(=O)c4ccccc4)c(N)[nH]c23)CC1 [Example 112, 7-(benzenesulfonyl)-4-[4-(methoxymethyl)piperidin-1-yl]-5H-pyrrolo[3,2-d]pyrimidin-6-amine]	6.09
CCOC1CCCN(c2ncnc3c(S(=O)(=O)c4ccccc4)c(N)[nH]c23)C1 (stereo not shown) [Example 113, 7-(benzenesulfonyl)-4-(3-ethoxypiperidin-1-yl)-5H-pyrrolo[3,2-d]pyrimidin-6-amine]	6.07

Other lines, results leading:

pEC50	Compound
5.96	Nc1[nH]c2c(N3CCCC(n4cccn4)C3)ncnc2c1S(=O)(=O)c1ccccc1 (stereo not shown) [Example 114, 7-(benzenesulfonyl)-4-[3-(1H-pyrazol-1-yl)piperidin-1-yl]-5H-pyrrolo[3,2-d]pyrimidin-6-amine]
6.10	CN(c1ncnc2c(S(=O)(=O)c3ccccc3)c(N)[nH]c12)C1CCOCC1 [Example 115, 7-(benzenesulfonyl)-4-N-methyl-4-N-(oxan-4-yl)-5H-pyrrolo[3,2-d]pyrimidine-4,6-diamine]
7.10	Nc1[nH]c2c(N3CCC(OCC4CC4)CC3)ncnc2c1S(=O)(=O)c1ccccc1 [Example 116, 7-(benzenesulfonyl)-4-[4-(cyclopropylmethoxy)piperidin-1-yl]-5H-pyrrolo[3,2-d]pyrimidin-6-amine]
5.48	COC1CCN(c2ncnc3c(S(=O)(=O)c4ccccc4)c(N)[nH]c23)C1 (stereo not shown) [Example 117, 7-(benzenesulfonyl)-4-(3-methoxypyrrolidin-1-yl)-5H-pyrrolo[3,2-d]pyrimidin-6-amine]
5.29	COC[C@H]1CCCN1c1ncnc2c(S(=O)(=O)c3ccccc3)c(N)[nH]c12 [Example 118, 7-(benzenesulfonyl)-4-[(2R)-2-(methoxymethyl)pyrrolidin-1-yl]-5H-pyrrolo[3,2-d]pyrimidin-6-amine]
